Earlier results as cited in PMC11292818 (ACS Omega, 2024).

Biological target: acetylcholinesterase (AChE) (Homo sapiens, UniProt P22303)
Settings: read-out: IC50 against acetylcholinesterase

acetylcholinesterase (AChE), sequence (P22303 32-614, species assumed): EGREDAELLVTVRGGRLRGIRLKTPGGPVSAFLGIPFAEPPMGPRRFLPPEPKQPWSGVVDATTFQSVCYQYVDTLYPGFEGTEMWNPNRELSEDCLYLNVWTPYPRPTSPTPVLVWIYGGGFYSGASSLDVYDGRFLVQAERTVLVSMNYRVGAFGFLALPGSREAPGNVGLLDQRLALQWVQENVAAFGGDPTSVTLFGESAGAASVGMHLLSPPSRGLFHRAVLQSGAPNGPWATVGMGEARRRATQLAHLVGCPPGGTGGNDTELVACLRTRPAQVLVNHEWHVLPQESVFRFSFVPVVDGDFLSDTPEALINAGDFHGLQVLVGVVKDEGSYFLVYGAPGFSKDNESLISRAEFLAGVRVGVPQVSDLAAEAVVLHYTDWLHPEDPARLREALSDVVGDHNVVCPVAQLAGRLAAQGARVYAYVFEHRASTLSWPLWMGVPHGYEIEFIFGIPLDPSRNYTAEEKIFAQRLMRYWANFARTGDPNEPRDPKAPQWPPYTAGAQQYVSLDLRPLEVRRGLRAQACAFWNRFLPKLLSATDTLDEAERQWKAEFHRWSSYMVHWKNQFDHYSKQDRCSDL

CC(C)=CCc1c(O)ccc(C(=O)/C=C/c2ccc(O)cc2)c1O [Compound 4, isobavachalcone]
IC50: 18.3 µM

COc1cc(O)c(OC)c(O)c1C(=O)/C=C/c1ccccc1 [Compound 3, 2′,4′-dihydroxy-3′,6′-dimethoxychalcone]
IC50: 20.1 µM
